Paper PMC4102551, “Screening and Characterisation of Antimicrobial Properties of Semisynthetic Betulin Derivatives” (PLoS ONE, 2014)
In brackets after ≈: the same amount, converted by molar mass.

Legend:
[1] = test system: E. faecalis ATCC 29212; assay: Broth microdilution assay, E. faecalis; assay type: cell-based, Enterococcus faecalis; settings: 50 µM, 24 h, inhibition of growth, mean ± SD
Experimental: (§1) Clinically used antimicrobial agents were selected based on international guidelines for antimicrobial testing and were utilised as reference compounds in the antimicrobial assays. The compounds were purchased from Sigma, Fluka and ICN Biomedicals. Stock solutions of the reference compounds were prepared either in double distilled sterile MilliQ water or in DMSO. Water solutions were sterilised through a 0.22 µm filter (VWR International). […] During the primary screening, these reference compounds were used as positive controls at the determined MIC on every plate.
(§2) Gram-negative strains Escherichia coli (ATCC 25922), Enterobacter aerogenes (ATCC 13048) and Pseudomonas aeruginosa (ATCC 27853), Gram-positive strains Staphylococcus aureus (ATCC 25923) and Enterococcus faecalis (ATCC 29212), and fungal strain Candida albicans (ATCC 90028) were obtained from Microbiologics Inc., and used for the antimicrobial screening. Strains were selected according to the guidelines set for clinical laboratories by Clinical and Laboratory Standards Institute [CLSI, formerly National Committee on Clinical Laboratory Standards [22]] and the European Committee on Antimicrobial Susceptibility Testing (EUCAST). Bacterial strains were grown on Mueller Hinton II Agar (MHA) (BBL, BD) and Mueller Hinton II broth (MHB) (BBL, BD), whereas Candida was initiated on Sabouraud Dextrose Agar (SDA) (Difco, BD) plates. Media were prepared into MilliQ water according to manufacturer’s instruction and autoclaved at 121°C for 15 min. Bacteria were plated on MHA plates and incubated at 37°C for 16–18 h. Bacterial suspension for the assays was prepared by subculturing the bacteria into MHB and by incubating at 37°C for 16–20 h at 110 rpm prior to the assay. Candida strain was grown on SDA plates at 27°C for 16–18 h and suspended into sterile 0.9% saline for the assay.
(§3) Antimicrobial screening assays were performed by broth microdilution method following the guidelines of CLSI and EUCAST. Bacterial suspensions were prepared as mentioned earlier and diluted with MHB to obtain a final inoculum of 5×10^5 colony-forming units (cfu)/mL in the assay for all the bacteria (based on OD620 values previously calibrated against plate counts). Candida suspension was prepared into sterile 0.9% saline solution as stated earlier. […] Assays were carried out in clear 96-well microtitre plates and initiated by dispensing an equal volume of microbial suspension and sample solution diluted into the assay medium into the wells. The plates were incubated for 24 h at 37°C (for Candida the incubation was at 35°C for 48 h) with agitation. Absorbance was measured at 620 nm with Victor plate reader (Wallac 1420, Perkin Elmer) at 0, 4 and 24 h with the bacteria, and at 0, 24 and 48 h with Candida. The antimicrobial activity of the samples was calculated from the absorbance values by comparing to the controls, and expressed as a percentage inhibition of growth. All the betulin derivatives were first assayed at the single concentration of 50 µM (two separate experiments, each with three replicates). […] The MIC90 value was expressed as the lowest concentration of compound that inhibited the microbial growth by >90%. The MIC90 results are means of three replicates from two separate experiments.

[2] = test system: C. albicans ATCC 90028; assay: Broth microdilution assay, C. albicans; assay type: cell-based, Candida albicans; settings: for Inhibitory effect (%) C. albicans ATCC 90028: 50 µM, 48 h at 35°C, inhibition of growth, mean ± SD
Experimental: as §1, §2, §3

[3] = test system: Huh-7 cells; assay: in vitro; assay type: cell-based, human; settings: 24 h exposure; for Cytotoxicity (%) Huh-7 cells: 50 µM, ATP content, 5% FBS
Experimental: Huh-7 cells (derived from human hepatocellular carcinoma) were obtained as a gift from Prof. Ralf Bartenschlager (University of Heidelberg, Germany) and used for assessing the cytotoxicity against mammalian cells. HL cells (a heteroploid cell line used for propagating respiratory viruses) were used as a host cell line in the host-pathogen co-culture assay. […] Both cell lines were cultured at 37°C, 5% CO2 and 95% humidity.
The effect of the betulin derivatives on metabolic activity of Huh-7 cells was evaluated by measuring the intracellular ATP content of the cells after 24 h exposure to the compounds. In brief, cells were seeded at 20000 cells/well on white-walled microplates (PerkinElmer) and incubated at 37°C, 5% CO2 and 95% humidity. After culturing the cells overnight, the medium was replaced with the assay media (5% FBS) containing the sample and the cells were incubated for 24 h. Polymyxin B sulphate (15000 IU/mL) was used as a positive control. Following the incubation period, Promega’s CellTiter-Glo Cell Viability Assay was used to determine the intracellular ATP levels according to the manufacturer’s instructions. Cells were washed with 100 µL 6.7 mM PBS, pH 7.4 and 50 µL of fresh assay media and 50 µL of the CellTiter-Glo reagent were added into the wells. After 2 min shaking, followed by 10 min incubation at RT, luminometric signal was measured using Varioskan Flash plate reader (Thermo Fisher Scientific).

[4] = test system: S. aureus ATCC 25923; assay: Broth microdilution assay, S. aureus; assay type: cell-based, Staphylococcus aureus; settings: 50 µM, 24 h, inhibition of growth, mean ± SD
Experimental: as §1, §2, §3

[5] = test system: E. aerogenes ATCC 13048; assay: Broth microdilution assay, E. aerogenes; assay type: cell-based, Enterobacter aerogenes; settings: for Inhibitory effect (%) E. aerogenes ATCC 13048: 50 µM, 24 h, inhibition of growth, mean ± SD
Experimental: as §1, §2, §3

[6] = test system: E. coli ATCC 25922; assay: Broth microdilution assay, E. coli; assay type: cell-based, Escherichia coli; settings: for Inhibitory effect (%) E. coli ATCC 25922: 50 µM, 24 h, inhibition of growth, mean ± SD
Experimental: as §1, §2, §3

[7] = test system: P. aeruginosa ATCC 27853; assay: Broth microdilution assay, P. aeruginosa; assay type: cell-based, Pseudomonas aeruginosa; settings: for Inhibitory effect (%) P. aeruginosa ATCC 27853: 50 µM, 24 h, inhibition of growth, mean ± SD
Experimental: as §1, §2, §3

[8] = lowest concentration inhibiting growth by >90%

Row | Compound | Inhibitory effect (%) E. faecalis ATCC 29212 [1] [%] | Inhibitory effect (%) C. albicans ATCC 90028 [2] [%] | Cytotoxicity (%) Huh-7 cells [3] [%] | Inhibitory effect (%) S. aureus ATCC 25923 [4] [%] | Inhibitory effect (%) E. aerogenes ATCC 13048 [5] [%] | Inhibitory effect (%) E. coli ATCC 25922 [6] [%] | Inhibitory effect (%) P. aeruginosa ATCC 27853 [7] [%] | MIC90 ([2]; Candida albicans, ATCC90028, lowest concentration inhibiting growth by >90%, read-out: MIC90 of positive control, C. albicans) [mg/L] | IC50 cytotoxicity Huh-7 cells (positive control) ([3]; ATP assay) [IU/mL] | MIC90 of positive control, E. aerogenes [5, 8] | MIC90 of positive control, E. coli [6, 8] | MIC90 of positive control, P. aeruginosa [7, 8]
1 | CC(C)C12CCC3(COC(=O)C4CCCCC4)CCC4(C)C(=C31)C(CC1C3(C)CCC(OC(=O)C5CCCCC5)C(C)(C)C3CCC14C)n1c(=O)n(C(C)(C)C)c(=O)n12 (stereo not shown) [Compound 51] | 62.3±0.3 | -96.4±22.3 | -10.0±2.6 | 7.5±3.8 | 10.8±2.5 | -3.2±1.0 | 5.9±0.3 | – | – | – | – | –
2 | C=C(C)[C@@H]1CC[C@]2(COC(=O)C3C(C=C(C)C)C3(C)C)CC[C@]3(C)[C@H](CC[C@@H]4[C@@]5(C)CC[C@H](O)C(C)(C)[C@@H]5CC[C@]43C)[C@@H]12 (stereo partly shown) [Compound 3, 28-O-chrysanthemoylbetulin] | 46.9±6.0 | 35.4±3.8 | -5.8±2.5 | -23.2±11 | 10.6±0.5 | 0.3±1.7 | 4.4±1.4 | – | – | – | – | –
3 | CC(=O)OCC12CCC3(C(C)C)C1=C1C(CC4C5(C)CCC(OC(C)=O)C(C)(C)C5CCC4(C)C1(C)CC2)n1c(=O)n(-c2ccc(F)cc2)c(=O)n13 (stereo not shown) [Compound 37] | 48.2±7.7 | 11.7±9.0 | 0.8±3.4 | 6.5±0.9 | 17.7±2.2 | 5.0±8.8 | 4.6±0.7 | – | – | – | – | –
4 | C=C(C)[C@@H]1CC[C@]2(COC(C)=O)CC[C@]3(C)[C@H](CC[C@@H]4[C@@]5(C)CC[C@H](O)C(C)(C)[C@@H]5CC[C@]43C)[C@@H]12 [Compound 9] | 50.9±2.1 | 3.0±10.1 | 5.1±1.0 | 5.1±6.9 | 9.1±2.1 | -0.2±7.1 | -0.6±3.3 | – | – | – | – | –
5 | COc1cccc(-n2c(=O)n3n(c2=O)C2(C(C)C)CCC4(COC(C)=O)CCC5(C)C(=C42)C3CC2C3(C)CCC(OC(C)=O)C(C)(C)C3CCC25C)c1 (stereo not shown) [Compound 34] | 68.4±3.0 | -1.1±3.5 | 8.5±2.0 | 3.1±2.0 | 13.8±4.3 | 1.7±4.2 | 0.6±2.5 | – | – | – | – | –
6 | C=C(C)C1CCC2(C(=O)NC(CC(=O)O)C(=O)O)CCC3(C)C(CCC4C5(C)CCC(=O)C(C)(C)C5CCC43C)C12 [Compound 27, L-aspartyl amide of betulonic acid] | 38.2±15.5 | 44.2±3.8 | 10.9±1.3 | 12.7±3.3 | 9.3±1.0 | 3.1±4.6 | -1.2±0.4 | – | – | – | – | –
7 | C=C(C)C1CCC2(COS(C)(=O)=O)CCC3(C)C(CCC4C5(C)CCC(OC(C)=O)C(C)(C)C5CCC43C)C12 (stereo not shown) [Compound 13] | 61.2±1.5 | -14.8±8.5 | 0.2±3.8 | -16.5±3.0 | 15.0±1.9 | -0.4±3.4 | 6.5±0.9 | – | – | – | – | –
8 | C=C(C)C1CCC2(C=O)CCC3(C)C(CCC4C5(C)CCC(=O)C(C)(C)C5CCC43C)C12 (stereo not shown) [Compound 22] | 16.3±19.0 | -18.7±15.1 | 4.1±17.7 | 0.1±1.5 | 6.0±4.6 | -1.2±0.5 | 4.5±1.6 | – | – | – | – | –
9 | CCCCn1c(=O)n2n(c1=O)C1(C(C)C)CCC3(COC(C)=O)CCC4(C)C(=C31)C2CC1C2(C)CCC(OC(C)=O)C(C)(C)C2CCC14C (stereo not shown) [Compound 42] | 67.5±3.7 | -12.0±11.8 | -8.3±1.3 | 1.5±1.0 | 10.6±3.5 | 1.7±5.2 | 1.0±0.4 | – | – | – | – | –
10 | C=C(C)C1CCC2(CO)CCC3(C)C(CCC4C5(C)CCC(OC(C)=O)C(C)(C)C5CCC43C)C12 (stereo not shown) [Compound 12] | 54.7±7.9 | -18.0±27.4 | 3.8±14.1 | -16.3±7.4 | 14.5±1.3 | 1.0±5.0 | 1.8±1.2 | – | – | – | – | –
11 | CCCC(=O)OCC12CCC3(C(C)C)C1=C1C(CC4C5(C)CCC(OC(=O)CCC)C(C)(C)C5CCC4(C)C1(C)CC2)n1c(=O)n(C)c(=O)n13 (stereo not shown) [Compound 46] | 44.8±2.8 | -56.1±14.6 | 6.4±2.9 | 2.5±3.1 | 7.4±5.9 | -2.1±6.4 | 5.2±0.7 | – | – | – | – | –
12 | C[C@@H]1[C@H](O)[C@@H](C)/C=C/C=C/C=C/C=C/C=C/C=C/C=C/[C@H](O[C@@H]2O[C@H](C)[C@@H](O)[C@H](N)[C@@H]2O)C[C@@H]2O[C@](O)(C[C@@H](O)C[C@@H](O)[C@H](O)CC[C@@H](O)C[C@@H](O)CC(=O)O[C@H]1C)C[C@H](O)[C@H]2C(=O)O [Amphotericin B, reference compound] | – | – | – | – | – | – | – | 2 (≈ 2.16 µM) | – | – | – | –
13 | Polymyxin B sulphate [reference compound] | – | – | – | – | – | – | – | – | 9361 | – | – | –
14 | Gentamycin [reference compound] | – | – | – | – | – | – | – | – | – | (0.5 µg/mL) | (2 µg/mL) | (8 µg/mL)
15 | C=C(C)[C@@H]1CC[C@]2(C(=O)OC)CC[C@]3(C)[C@H](CC[C@@H]4[C@@]5(C)CCC(=O)C(C)(C)[C@@H]5CC[C@]43C)[C@@H]12 [Compound 25, methyl ester of betulonic acid] | – | -30.0±17.3 | 23.0±4.0 | 2.5±1.3 | 11.4±3.9 | -3.3±1.4 | 2.3±0.3 | – | – | – | – | –
